For one assay, the target named is JAK3 (Homo sapiens (Human), UniProt P52333). In words: JAK Caliper enzyme assay at 1 mM ATP (JAK3). The class given is biochemical. To be noted: recombinant human kinase domain, Caliper mobility shift. Here is the method: (§1) Compounds of the invention were evaluated by in vitro methods to determine their respective ability to inhibit the JAK kinases (TYK2, JAK1, JAK2, JAK3).
(§2) The human JAK inhibitory activity was determined by using a microfluidic assay to monitor phosphorylation of a synthetic peptide by the recombinant human kinase domain of each of the four members of the JAK family, JAK1, JAK2, JAK3 and TYK2. […] Each assay condition was optimized for enzyme concentration and room temperature incubation time to obtain a conversion rate of 20% to 30% phosphorylated peptide product. Reactions were terminated by the addition of stop buffer containing EDTA. Utilizing the LabChip 3000 mobility shift technology (Caliper Life Science), each assay reaction was sampled to determine the level of phosphorylation. This technology is separation-based, allowing direct detection of fluorescently labeled substrates and products. Separations are controlled by a combination of vacuum pressure and electric field strength optimized for each peptide substrate.
(§3) JAK Caliper Enzyme Assay at 1 mM ATP
(§4) Compounds were added to a 384-well plate. Reaction mixtures contained 10 mM HEPES, pH 7.4, 10 mM MgCl2, 0.01% BSA, 0.0005% Tween 20, 1 mM ATP and 1 μM peptide substrate. […] The assays were initiated by the addition of 20 nM JAK1, 1 nM JAK2, 1 nM JAK or 1 nM TYK2 enzyme and were incubated at room temperature for three hours for JAK1, 60 minutes for JAK2, 75 minutes for JAK3 or 135 minutes for TYK2. Enzyme concentrations and incubation times were optimized for each new enzyme preps and were modified slightly over time to ensure 20% to 30% phosphorylation. The assays were stopped with 15 μL of 180 mM HEPES, pH 7.4, 20 mM EDTA, and 0.2% Coating Reagent 3. The assay plates were placed on a Caliper Life Science LC3000 instrument, and each well was sampled using appropriate separation conditions to measure the unphosphorylated and phosphorylated peptide.
(§5) The data was collected using the HTS Well Analyzer software from Caliper Life Sciences. The data output for data analysis is the percent product converted calculated on peak height (Equation 1). % product converted=100*((product)/(product+substrate)) Equation 1: […]
(§6) The percent effect at each compound concentration was calculated based on the positive and negative control well contained within each assay plate (Equation 2). […] The negative control wells contained DMSO alone (at the same concentration as the compound wells) that was used to set the baseline activity in the assay (i.e., uninhibited JAK1, JAK2, JAK3 or TYK2). % effect=100*((sample well−negative control)/(positive control-negative control)) Equation 2: The percent effect was plotted against the compound concentration compound.

The next assay concerns the target JAK2 (Homo sapiens (Human), UniProt O60674). In words: JAK Caliper enzyme assay at 1 mM ATP (JAK2). Particulars: recombinant human kinase domain, Caliper mobility shift. The class given is biochemical. The protocol:
as §1, §2, §3, §4, §5, §6

Assay [1] deals with IL-12 induced STAT4 phosphorylation (IL-12 signals through TYK2 and JAK2). In words: Human Whole Blood IL-12 Induced STAT4 Phosphorylation Assay. The class given is cell-based. Particulars: Lymphocyte, IL-12 5 ng/mL, pSTAT4 in lymphocytes by flow cytometry, read-out: HWB IL-12 IC50. Here is the method:
Selected compounds were assessed for their ability to inhibit IL-12 signaling in a human whole blood flow cytometry assay. IL-12 signals through TYK2 and JAK2. Human Whole Blood IL-12 Induced STAT4 Phosphorylation Assay
Test articles were prepared as 30 mM stocks in DMSO. An 11-point 2.5 dilution series was created in DMSO with a top concentration of 10 mM. Further dilution was done by adding 4 μL of the above test article solutions into 96 μL of PBS with a top concentration of 400 μM. […] Blood was warmed to 37° C. prior to use. Human whole blood was aliquoted ([…]) in 96-well, deep-well, V-bottom plates and treated with compounds at 11 different concentrations (0.2% DMSO final) at 37° C. for 60 minutes. This was followed by a challenge with IL-12 ([…]; final, 5 ng/mL) for 15 minutes. Samples were treated with warm 1× Lyse/Fix buffer ([…]) to terminate activation and further incubated at 37° C. for 20 minutes to lyse red blood cells. Plates were centrifuged at 300×g for 5 minutes, supernatant was aspirated, and cells were washed with […] of staining buffer (PBS containing 0.5% fetal bovine serum and 0.01% sodium azide). The washed cell pellets were resuspended with […] of pre-chilled 90% methanol, and incubated at 4° C. for 30 minutes. Plates were centrifuged at 300×g for 5 minutes, supernatant containing 90% methanol was aspirated, and cells were washed with […]/well of staining buffer. Cell pellets were resuspended in staining buffer containing anti-pSTAT4-AlexaFluor647 (1 to 150 dilution, […]), and incubated at room temperature in the dark overnight.
Samples were transferred to 96-well U-bottom plates and flow cytometric analysis was performed on a FACSCalibur or LSRFortessa equipped with a HTS plate loader (BD Biosciences). The lymphocyte population was gated for histogram analysis of pSTAT4. Background fluorescence was defined using unstimulated cells and a gate was placed at the foot of the peak to include ˜0.5% gated population. The histogram statistical analysis was performed using CellQuestO Pro version 5.2.1 (BD Biosciences) or FACSDiva version 6.2 (BD Biosciences) software. Relative fluorescence unit (RFU), which measures the level of phospho STAT4, was calculated by multiplying the percent positive population and its mean fluorescence. Data from 11 compound concentrations (singlicate at each concentration) was normalized as a percentage of control based on the formula: % of Control=100×(A−B)/(C−B) where A is the RFU from wells containing compound and IL-12, B is the RFU from wells without IL-12 and compound (minimum fluorescence) and C is the RFU from wells containing only IL-12 (maximum fluorescence). Inhibition curves and IC50 values were determined using the Prism version 5 software (GraphPad, La Jolla, Calif.).

The target of the next assay is JAK1 (Homo sapiens (Human), UniProt P23458). In words: JAK Caliper enzyme assay at 1 mM ATP (JAK1). The class given is biochemical. To be noted: recombinant human kinase domain, Caliper mobility shift. The protocol:
Compounds of the invention were evaluated by in vitro methods to determine their respective ability to inhibit the JAK kinases (TYK2, JAK1, JAK2, JAK3). The human JAK inhibitory activity was determined by using a microfluidic assay to monitor phosphorylation of a synthetic peptide by the recombinant human kinase domain of each of the four members of the JAK family, JAK1, JAK2, JAK3 and TYK2. […] Reactions were terminated by the addition of stop buffer containing EDTA. Utilizing the LabChip 3000 mobility shift technology (Caliper Life Science), each assay reaction was sampled to determine the level of phosphorylation. This technology is separation-based, allowing direct detection of fluorescently labeled substrates and products. Separations are controlled by a combination of vacuum pressure and electric field strength optimized for each peptide substrate. […] Compounds were added to a 384-well plate. […] Enzyme concentrations and incubation times were optimized for each new enzyme preps and were modified slightly over time to ensure 20% to 30% phosphorylation. […] The assay plates were placed on a Caliper Life Science LC3000 instrument, and each well was sampled using appropriate separation conditions to measure the unphosphorylated and phosphorylated peptide. The data was collected using the HTS Well Analyzer software from Caliper Life Sciences. […] The percent effect at each compound concentration was calculated based on the positive and negative control well contained within each assay plate (Equation 2). […] The percent effect was plotted against the compound concentration compound. […] Where max is the maximum asymptote (complete inhibition), min is the minimum asymptote (no inhibition) and s is the slope factor.

The next assay has as its target TYK2 (Homo sapiens (Human), UniProt P29597). In words: JAK Caliper enzyme assay at 1 mM ATP (TYK2). It counts as biochemical. Particulars: recombinant human kinase domain, Caliper mobility shift. The protocol: as §1, §2, §3, §4, §5, §6

JAK1, sequence (P23458 875-1153): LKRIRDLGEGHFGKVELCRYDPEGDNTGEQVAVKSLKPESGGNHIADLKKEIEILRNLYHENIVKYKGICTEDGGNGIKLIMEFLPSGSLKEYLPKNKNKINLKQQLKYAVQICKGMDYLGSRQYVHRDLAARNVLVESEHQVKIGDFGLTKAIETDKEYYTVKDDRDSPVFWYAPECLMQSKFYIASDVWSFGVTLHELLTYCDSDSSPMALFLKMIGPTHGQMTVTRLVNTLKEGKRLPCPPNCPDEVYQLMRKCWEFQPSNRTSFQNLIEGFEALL
JAK3, sequence (P52333 822-1111): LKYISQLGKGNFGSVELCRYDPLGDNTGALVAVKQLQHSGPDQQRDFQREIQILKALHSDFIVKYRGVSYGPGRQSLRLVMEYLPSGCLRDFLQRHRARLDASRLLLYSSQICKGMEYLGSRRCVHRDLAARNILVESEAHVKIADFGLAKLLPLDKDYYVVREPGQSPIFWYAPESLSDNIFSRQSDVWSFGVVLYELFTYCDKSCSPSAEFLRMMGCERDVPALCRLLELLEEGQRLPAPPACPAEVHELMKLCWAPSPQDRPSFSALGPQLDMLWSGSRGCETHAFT
TYK2, sequence (P29597 897-1176): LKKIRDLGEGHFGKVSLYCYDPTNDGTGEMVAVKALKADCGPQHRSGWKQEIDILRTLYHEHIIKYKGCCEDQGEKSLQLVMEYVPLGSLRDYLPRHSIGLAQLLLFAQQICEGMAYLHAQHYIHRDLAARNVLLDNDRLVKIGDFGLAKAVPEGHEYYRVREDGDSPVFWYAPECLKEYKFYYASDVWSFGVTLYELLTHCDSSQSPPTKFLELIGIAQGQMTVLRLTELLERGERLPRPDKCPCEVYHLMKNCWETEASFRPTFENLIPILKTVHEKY
JAK2, sequence (O60674 849-1124): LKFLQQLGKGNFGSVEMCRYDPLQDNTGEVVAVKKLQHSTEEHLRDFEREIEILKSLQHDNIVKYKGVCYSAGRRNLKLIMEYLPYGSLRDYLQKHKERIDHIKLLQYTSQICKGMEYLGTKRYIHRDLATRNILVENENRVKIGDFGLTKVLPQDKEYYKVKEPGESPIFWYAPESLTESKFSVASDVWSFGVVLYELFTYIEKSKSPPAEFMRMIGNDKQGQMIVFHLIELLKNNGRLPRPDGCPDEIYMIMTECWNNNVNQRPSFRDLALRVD

With `N#CC[C@]1(n2cc(-c3nc(-c4cc(CO)on4)cn4nccc34)cn2)C[C@@H](C#N)C1` [Example 1, (1s,3s)-3-(Cyanomethyl)-3-(4-(6-(5-(hydroxymethyl)isoxazol-3-yl)pyrazolo[1,5-a]pyrazin-4-yl)-1H-pyrazol-1-yl)cyclobutane-1-carbonitrile], the IC50 is > 9790 nM at JAK3, 40 nM on JAK2 and 162 nM in assay [1].

For the molecule `Cn1cc(-c2cn3nccc3c(-c3cnn(C4(CC#N)CN(CC#N)C4)c3)n2)cn1` [Example 7, 2,2′-(3-(4-(6-(1-Methyl-1H-pyrazol-4-yl)pyrazolo[1,5-a]pyrazin-4-yl)-1H-pyrazol-1-yl)azetidine-1,3-diyl)diacetonitrile], the IC50 came to 6680 nM at JAK3; 37 nM at JAK2; 41 nM in assay [1]; 250 nM at JAK1; 7 nM at TYK2.

With `Cn1cc(-c2cn3nccc3c(-c3cnn([C@]4(CC#N)C[C@H](C#N)C4)c3)n2)cn1` [Example 19, (1s,3s)-3-(Cyanomethyl)-3-(4-(6-(1-methyl-1H-pyrazol-4-yl)pyrazolo[1,5-a]pyrazin-4-yl)-1H-pyrazol-1-yl)cyclobutane-1-carbonitrile], in assay [1], the IC50 was determined as 28 nM.

With `Cn1cc(-c2cn3nccc3c(-c3cnn([C@]4(CC#N)C[C@@H](C#N)C4)c3)n2)cn1` [Example 20, (1r,3r)-3-(Cyanomethyl)-3-(4-(6-(1-methyl-1H-pyrazol-4-yl)pyrazolo[1,5-a]pyrazin-4-yl)-1H-pyrazol-1-yl)cyclobutane-1-carbonitrile], in assay [1], the IC50 worked out at 50 nM.

In the case of `Cn1cc(-c2cn3nccc3c(-c3cnn([C@]4(CC#N)C[C@@H](C#N)C4)c3)n2)c(N)n1` [Example 23, (1r,3r)-3-(4-(6-(3-Amino-1-methyl-1H-pyrazol-4-yl)pyrazolo[1,5-a]pyrazin-4-yl)-1H-pyrazol-1-yl)-3-(cyanomethyl)cyclobutane-1-carbonitrile], the half-inhibitory concentration (IC50) stood at 9410 nM at JAK3; 26 nM at JAK2; 34 nM in assay [1]; 431 nM at JAK1; 9 nM on TYK2.

`Cc1cnn2cc(-c3cnn(C)c3)nc(-c3cnn([C@]4(CC#N)C[C@@H](C#N)C4)c3)c12` [Example 25, (1r,3r)-3-(Cyanomethyl)-3-(4-(3-methyl-6-(1-methyl-1H-pyrazol-4-yl)pyrazolo[1,5-a]pyrazin-4-yl)-1H-pyrazol-1-yl)cyclobutane-1-carbonitrile]: the IC50 at JAK3 was > 10000 nM; at JAK2, 99 nM; in assay [1] it was 59 nM; at JAK1, 319 nM; at TYK2, 23 nM.

With `CO[C@H]1C[C@@](CC#N)(n2cc(-c3nc(-c4cc(CO)[nH]n4)cn4nccc34)cn2)C1` [Example 27, 2-((1 s,3r)-1-(4-(6-(5-(Hydroxymethyl)-1H-pyrazol-3-yl)pyrazolo[1,5-a]pyrazin-4-yl)-1H-pyrazol-1-yl)-3-methoxycyclobutyl)acetonitrile], the IC50 at JAK3 is > 10000 nM; at JAK2, 171 nM; in assay [1], 86 nM; at JAK1 it was 737 nM; at TYK2, 24 nM.

Turning to `CO[C@H]1C[C@](CC#N)(n2cc(-c3nc(-c4cc(N)[nH]n4)cn4nccc34)cn2)C1` [Example 30, 2-((1r,3s)-1-(4-(6-(3-Amino-1H-pyrazol-5-yl)pyrazolo[1,5-a]pyrazin-4-yl)-1H-pyrazol-1-yl)-3-methoxycyclobutyl)acetonitrile], the concentration for half-maximal inhibition (IC50) was > 10000 nM on JAK3; 71 nM at JAK2; 46 nM in assay [1]; 174 nM on JAK1; 7 nM at TYK2.

With `CO[C@H]1C[C@@](CC#N)(n2cc(-c3nc(-c4cc(C(N)=O)n[nH]4)cn4nccc34)cn2)C1` [Example 32], the IC50 is > 10000 nM at JAK3; 339 nM on JAK2; 130 nM in assay [1]; 2250 nM on JAK1; 17 nM at TYK2.

Source of the values: patent publication US10144738B2, “Pyrazolo[1,5-A]PYRAZIN-4-YL derivatives” (Pfizer Inc., priority 2016, dated 2018).
